This assay concerns Human RSV-A (“Long” strain). Nature of the assay: RSV in vitro cytoprotection assay in HEp-2 cells (ATPlite read-out). Type of assay: cell-based. The note with it: human respiratory syncytial virus. From the text: RSV is a single stranded negative sense RNA virus that causes respiratory tract infections which can be dangerous to infants, the elderly, and immunosuppressed individuals. Currently there is no vaccine, and therapeutic options are both costly and of limited effectiveness. These approved treatments are Ribavirin, and Palivizumab/Synagis (a monoclonal antibody). RSV has two genotypes, A and B, which differ primarily in the structure of the virus' surface “G” attachment protein. Our current primary screen focuses on RSV-A and uses an in vitro cytoprotection assay where compounds are added in 2-fold dilutions to cells which are then subjected to fully replicative viral particles. Cell viability is measured several days later along with separate measurements of compound cytotoxicity. This report focuses on the results of our most recent screening of compounds.
HEp-2 cells, (originally derived from tumors grown in irradiated-cortisonised weanling rats that had been injected with epidermoid carcinoma tissue from a person's larynx, but later found to be indistinguishable from HeLa cells by PCR DNA analysis), were used for the culturing of genotype A, “Long” strain RSV. Flasks were inoculated with RSV and viral stocks were collected once cytopathic effect (CPE) was greater than 90%. Viral stocks in 25% sucrose media were snap frozen using liquid nitrogen to increase viral stability. Viral stock titers were quantified by tissue culture infectious dose 50% (TCID50) using 8,000 cells per well and 3-fold viral dilutions across a 96-well plate, cultured for 4 days.
Following extensive parameter testing, the final assay is run as follows: HEp-2 cells are seeded into the inner 60 wells of a 96-well plate at 8,000 cells per well in a volume of 50 μL using Growth Media (DMEM without phenol red, 1% L-Glut, 1% Penn/Strep, 1% nonessential amino acids, 10% FBS). 2-Fold serial dilutions of control and test compounds are added to the wells in duplicate in a total volume of 25 μL. Viral stock is then added to the wells in a volume of 25 μL, bringing the total volume of each well to 100 μL. Each 96-well plate has a control column of 6 wells with cells and virus but no compound (negative control, max CPE), a column with cells but no compound or virus (positive control, minimum CPE), and a column with no cells or virus or compound (background plate/reagent control). The control wells with cells but no virus are given an additional 25 μL of growth media containing an equal quantity of sucrose as those wells receiving the viral stock in order to keep consistent in media and volume conditions. The outer wells of the plate are filled with 125 μL of growth media to act as a thermal and evaporative moat around the test wells. Following a 4-day incubation period, the plates are read using ATPlite (50 μL added per well), which quantifies the amount of ATP (a measure of cell health) present in each well. Assay plates are read using the Envision luminometer. In parallel, cytotoxicity is examined on an additional 96-well plate treated in an identical manner, but substituting the 25 μL of viral stock for 25 μL of growth media. […] EC50 ranges are as follows: A<0.1 μM; B 0.1-0.5 μM; C>0.5 μM
In general terms: Cellular ATP, detected with luciferase, serves as a proxy for viable cell number.

[1] abbreviates: 96 h, HEp-2 cells, genotype A “Long” strain RSV, 4-day incubation, ATPlite, read-out: Human RSV-A (“Long” strain) EC50.

pEC50: −log10 of the molar value. Read-outs that look alike come from different tables or passages of the source.

A word on the pEC50: it is the EC50 on a negative log10 scale, so that one unit is a factor of ten. On to `Cc1cnc(N2CC3(CCOCC3)C2)c(C(=O)Nc2ccc(C(=O)N3CCc4cc(C(=O)c5nc(C(F)(F)F)c[nH]5)sc4-c4ccc(F)cc43)cc2)c1` [Example 33], for which, under setting [1], the pEC50 is > 7.00.

For the compound `Cc1cnc(N2CC3(CCOCC3)C2)c(C(=O)Nc2ccc(C(=O)N3CCc4cc(C(=O)c5nnc(C)o5)sc4-c4ccc(F)cc43)cc2)c1` [Example 31], the pEC50 under setting [1] is 6.30 to 7.00.

Consider `Cc1cnc(N2CC3(CCOCC3)C2)c(C(=O)Nc2ccc(C(=O)N3CCc4cc(C(=O)c5ccccc5F)sc4-c4ccccc43)cc2)c1` [Example 39], for which the pEC50 under setting [1] was 6.30 to 7.00.

For the compound `Cc1cnc(N2CC3(CCOCC3)C2)c(C(=O)Nc2ccc(C(=O)N3CCc4cc(C(=O)c5nc6c(F)cccc6[nH]5)sc4-c4ncccc43)cc2)c1` [Example 26], the pEC50 under setting [1] is > 7.00.

Consider `Cc1cnc(N2CC3(CCOCC3)C2)c(C(=O)Nc2ccc(C(=O)N3CCc4cc(C(=O)c5nc6ccccc6[nH]5)sc4-c4ccc(F)cc43)cc2)c1` [Example 8], for which the pEC50 under setting [1] was > 7.00.

Consider `Cc1cnc(N2CC3(CCOCC3)C2)c(C(=O)Nc2ccc(C(=O)N3CCc4cc(C(=O)c5nc6c(C)cccc6[nH]5)sc4-c4ccc(F)cc43)cc2)c1` [Example 6], for which the negative-log EC50 (pEC50) under setting [1] was > 7.00.

On to `Cc1cnc(N2CC3(CCOCC3)C2)c(C(=O)Nc2ccc(C(=O)N3CCc4cc(C(=O)c5nc6ncccc6[nH]5)sc4-c4ccc(F)cc43)cc2)c1` [Example 3], for which, under setting [1], the pEC50 is > 7.00.

On to `Cc1cnc(N2CC3(CCOCC3)C2)c(C(=O)Nc2ccc(C(=O)N3CCc4cc(C(=O)c5nc6ccccc6o5)sc4-c4ccc(F)cc43)cc2)c1` [Example 30], for which the negative logarithm of the EC50 (pEC50) under setting [1] is > 7.00.

For the compound `Cc1cnc(N2CC3(CCOCC3)C2)c(C(=O)Nc2ccc(C(=O)N3CCc4cc(C(=O)c5nc6ccccc6n5C)sc4-c4ccc(F)cc43)cc2)c1` [Example 2], the pEC50 under setting [1] was 6.30 to 7.00.

For the compound `Cc1cnc(N2CC3(CCOCC3)C2)c(C(=O)Nc2ccc(C(=O)N3CCc4cc(C(=O)c5ccccc5C)sc4-c4ccccc43)cc2)c1` [Example 38], under setting [1], the pEC50 was < 6.30.

As to `Cc1cnc(N2CC3(CCOCC3)C2)c(C(=O)Nc2ccc(C(=O)N3CCc4cc(C(=O)c5nccn5C)sc4-c4ccc(F)cc43)cc2)c1` [Example 1], the pEC50 under setting [1] is > 7.00.

Regarding `Cc1cnc(N2CC3(CCOCC3)C2)c(C(=O)Nc2ccc(C(=O)N3CCc4cc(C(=O)c5nc6c(F)cccc6[nH]5)sc4-c4ccc(F)cc43)cc2)c1` [Example 7], under setting [1], the pEC50 was > 7.00.

As to `Cc1cnc(N2CC3(CCOCC3)C2)c(C(=O)Nc2ccc(C(=O)N3CCc4cc(C(=O)c5nc6ccccc6[nH]5)sc4-c4ncccc43)cc2)c1` [Example 21], under setting [1], the pEC50 was > 7.00.

Take `Cc1cnc(N2CC3(CCOCC3)C2)c(C(=O)Nc2ccc(C(=O)N3CCc4cc(C(=O)c5cc(C(F)(F)F)n[nH]5)sc4-c4ccc(F)cc43)cc2)c1` [Example 34]: the pEC50 under setting [1] is 6.30 to 7.00.

For `Cc1cnc(N2CC3(CCOCC3)C2)c(C(=O)Nc2ccc(C(=O)N3CCc4cc(C(=O)c5nc6ccccc6[nH]5)oc4-c4ccccc43)cc2)c1` [Example 12], the pEC50 under setting [1] was > 7.00.

Turning to `Cc1cnc(N2CC3(CCOCC3)C2)c(C(=O)Nc2ccc(C(=O)N3CCc4cc(C(=O)c5nc6c([nH]5)CCCC6)oc4-c4ccccc43)cc2)c1` [Example 17], under setting [1], the negative-log EC50 (pEC50) is > 7.00.

On to `Cc1cnc(N2CC3(CCOCC3)C2)c(C(=O)Nc2ccc(C(=O)N3CCc4cc(C(=O)c5nc6ccccc6[nH]5)sc4-c4ccccc43)cc2)c1` [Example 11], for which, under setting [1], the pEC50 was > 7.00.

Take `Cc1cnc(N2CC3(CCOCC3)C2)c(C(=O)Nc2ccc(C(=O)N3CCc4cc(C(=O)c5nccn5C)sc4-c4ncccc43)cc2)c1` [Example 19]: the pEC50 under setting [1] was > 7.00.

With `Cc1cnc(N2CC3(CCOCC3)C2)c(C(=O)Nc2ccc(C(=O)N3CCc4cc(C(=O)c5nc6c(F)cccc6[nH]5)oc4-c4ccccc43)cc2)c1` [Example 16], the pEC50 under setting [1] was > 7.00.

Consider `Cc1ccc(C(=O)Nc2ccc(C(=O)N3CCc4cc(C(=O)c5[nH]nnc5C)sc4-c4ccc(F)cc43)cc2)c(N2CC3(CCOCC3)C2)n1` [Example 37], for which the pEC50 under setting [1] is 6.30 to 7.00.

In the case of `Cc1cnc(N2CC3(CCOCC3)C2)c(C(=O)Nc2ccc(C(=O)N3CCc4cc(C(=O)c5nc6c(C)cccc6[nH]5)oc4-c4ccccc43)cc2)c1` [Example 15], the negative logarithm of the EC50 (pEC50) under setting [1] was > 7.00.

Take `Cc1ccc(C(=O)Nc2ccc(C(=O)N3CCc4c(sc(C(=O)c5nccn5C)c4F)-c4ccccc43)cc2)c(N2CC3(CCOCC3)C2)n1` [Example 28]: the pEC50 under setting [1] was > 7.00.

Turning to `Cc1cnc(N2CC3(CCOCC3)C2)c(C(=O)Nc2ccc(C(=O)N3CCc4cc(C(=O)c5ncc(C)[nH]5)sc4-c4ccc(F)cc43)cc2)c1` [Example 9], under setting [1], the pEC50 is > 7.00.

For `Cc1cnc(N2CC3(CCOCC3)C2)c(C(=O)Nc2ccc(C(=O)N3CCc4cc(C(=O)c5nc6c(C)cccc6[nH]5)sc4-c4ncccc43)cc2)c1` [Example 20], under setting [1], the pEC50 was < 6.30.

As for `Cc1cnc(N2CC3(CCOCC3)C2)c(C(=O)Nc2ccc(C(=O)N3CCc4cc(C(=O)c5nc6ccccc6n5C)oc4-c4ccccc43)cc2)c1` [Example 18], the pEC50 under setting [1] is > 7.00.

Regarding `Cc1cnc(N2CC3(CCOCC3)C2)c(C(=O)Nc2ccc(C(=O)N3CCc4cc(C(=O)c5nc6cc(F)ccc6[nH]5)sc4-c4ccc(F)cc43)cc2)c1` [Example 5], the pEC50 under setting [1] is 6.30 to 7.00.

For `Cc1cnc(N2CC3(CCOCC3)C2)c(C(=O)Nc2ccc(C(=O)N3CCc4cc(C(=O)c5nc(C#N)c[nH]5)sc4-c4ccc(F)cc43)cc2)c1` [Example 32], under setting [1], the negative-log EC50 (pEC50) is > 7.00.

For the compound `Cc1cnc(N2CC3(CCOCC3)C2)c(C(=O)Nc2ccc(C(=O)N3CCc4cc(C(=O)c5nc6c([nH]5)CCCC6)sc4-c4ncccc43)cc2)c1` [Example 23], the pEC50 under setting [1] is > 7.00.

On to `Cc1cnc(N2CC3(CCOCC3)C2)c(C(=O)Nc2ccc(C(=O)N3CCc4cc(C(=O)c5cc(C)n[nH]5)sc4-c4ccc(F)cc43)cc2)c1` [Example 35], for which the pEC50 under setting [1] is > 7.00.

Take `Cc1ccc(C(=O)Nc2ccc(C(=O)N3CCc4c(sc(C(=O)c5nc6ccccc6[nH]5)c4F)-c4ccccc43)cc2)c(N2CC3(CCOCC3)C2)n1` [Example 27]: the pEC50 under setting [1] is < 6.30.

As to `Cc1cnc(N2CC3(CCOCC3)C2)c(C(=O)Nc2ccc(C(=O)N3CCc4cc(C(=O)c5nc(C)c(C)[nH]5)oc4-c4ccccc43)cc2)c1` [Example 13], under setting [1], the pEC50 was > 7.00.

As to `Cc1cnc(N2CC3(CCOCC3)C2)c(C(=O)Nc2ccc(C(=O)N3CCc4cc(C(=O)c5nc(C6CC6)c[nH]5)sc4-c4ccc(F)cc43)cc2)c1` [Example 10], the pEC50 under setting [1] is 6.30 to 7.00.

As to `Cc1cnc(N2CC3(CCOCC3)C2)c(C(=O)Nc2ccc(C(=O)N3CCc4cc(C(=O)c5nc6c([nH]5)CCC6)sc4-c4ncccc43)cc2)c1` [Example 24], the pEC50 under setting [1] was > 7.00.

`Cc1cnc(N2CC3(CCOCC3)C2)c(C(=O)Nc2ccc(C(=O)N3CCc4cc(C(=O)c5nc(C)c(C)[nH]5)sc4-c4ccc(F)cc43)cc2)c1` [Example 4]: under setting [1], the pEC50 was > 7.00.

For `Cc1cnc(N2CC3(CCOCC3)C2)c(C(=O)Nc2ccc(C(=O)N3CCc4cc(C(=O)c5ncccc5C)sc4-c4ccccc43)cc2)c1` [Example 40], the pEC50 under setting [1] was 6.30 to 7.00.

For the compound `O=C(Nc1ccccc1F)N[C@H]1N=C(c2ccccc2)c2ccccc2NC1=O` [RSV-604, reference compound], the pEC50 (HEp-2) was ~5.62.

In the case of `Cc1cnc(N2CC3(CCOCC3)C2)c(C(=O)Nc2ccc(C(=O)N3CCc4cc(C(=O)c5ncc6ccccn56)sc4-c4ccc(F)cc43)cc2)c1` [Example 29], the pEC50 under setting [1] is > 7.00.

Consider `Cc1cnc(N2CC3(CCOCC3)C2)c(C(=O)Nc2ccc(C(=O)N3CCc4cc(C(=O)c5ncc(C)[nH]5)oc4-c4ccccc43)cc2)c1` [Example 14], for which the pEC50 under setting [1] was > 7.00.

As for `Cc1cnc(N2CC3(CCOCC3)C2)c(C(=O)Nc2ccc(C(=O)N3CCc4cc(C(=O)c5[nH]nnc5C)sc4-c4ccc(F)cc43)cc2)c1` [Example 36], the pEC50 under setting [1] is > 7.00.

Take `Cc1cnc(N2CC3(CCOCC3)C2)c(C(=O)Nc2ccc(C(=O)N3CCc4cc(C(=O)c5nc6ccccc6n5C)sc4-c4ncccc43)cc2)c1` [Example 25]: the pEC50 under setting [1] is 6.30 to 7.00.

(Values after patent US10975094B2, “Heterocyclic compounds as RSV inhibitors” (Enanta Pharmaceuticals, Inc., priority 2018, dated 2021).)
